Where “and” joins values, the source holds several entries; their conditions need not be identical. Identical values can stand only once.

Data set [1] can be described thus: 12-month aging of topical cream, isothiocyanate concentration by HPLC. As to conditions: Table 11 cream; for isothiocyanate concentration in cream, 4 months: aged 4 months; for isothiocyanate concentration in cream, 8 months: aged 8 months; for isothiocyanate concentration in cream, 12 months: aged 12 months; for isothiocyanate concentration in cream, Original: time 0. The data set is classed as physicochemical. On the procedure:
To determine the effects of aging of the topical cream formulations on the potency of the included bioactives, a study was performed as described in Table 12. Shown is a 12-month aging of the orthomolecular transdermal formulation as described in Table 11. Bio-encapsulation of the isothiocyanates, such as cyclodextrin R-sulforaphane, is not commonly available, and can suffer instability depending on the cream base used. Since topical formulations are applied to the skin, consideration of noxious volatile sulfur emissions and dermal irritation, especially from broccoli, wasabi, and mustard extracts, limit their amount and source. Table 12 illustrates that stabilization of orthomolecular ingredients such as isothiocyanates can be accomplished in a topical formulation.

In another data set the test system is ear edema. As to conditions: cited from earlier work.
In another data set the test system is breast cancer. The note with it: women living at least one year after breast cancer diagnosis; cited from earlier work.
The conditions of data set [2]: in topical formulations; cited from earlier work.
In a further data set the test system is mice. The note with it: mouse, in vivo; cited from earlier work.
Data set [3] has as its system oxazolone-induced ear edema in BALB/c mice. Description: Oxazolone-induced murine ear edema, second formalized study. The note with it: for reduction / inhibition of oxazolone-induced ear edema: as stated in running text per treatment group; for Change in Ear Weight, Mean: group mean, 8 mice, acetone vehicle 74.6; for Left Ear weight / Right Ear weight / ΔWt., change in mouse ear weight: individual mice, 24 h after oxazolone challenge; for % Inhibition of change in ear weight: vs acetone vehicle group. Type of data set: in vivo. As for the experimental part: The present example assesses the anti-inflammatory activity of a topically applied formulation in accordance with one aspect of the present invention in a prophylactic and therapeutic model of ear edema in BALB/c mice. […] Louis, Mo., USA) to 20 mL acetone (Acros Organics, Cat. 42324-0010, lot B4522107, Thermo Fisher Scientific, Princeton, N.J., USA). The mixture was gently heated until a bright yellow color. 52 BALB/c mice (Harlan Sprague-Dawley, Inc., Indianapolis, Ind., USA, male, 6-7 weeks old) were received, individually examined and housed in six cages of eight mice each and one cage containing four mice. No clinical signs of disease or distress were observed. The mice were placed in quarantine with daily inspections. […] The mixture was gently heated until a bright yellow color. […] This equated to 0.336 mg of cream per ear. 0.6 mg betamethasone-21-valerate (Sigma Chem., Cat. […] PZ0008, lot 020M47044) was suspended in […] dH2O (1 mg/mL) for Group 4. […] Twenty-four hours after oxazolone challenge, the mice were euthanized, and the ears were removed and weighed.

Turning to `C[S+]([O-])CCCCCCN=C=S` (centres unmarked) [6 MITC, 6-(methylsulfinyl)hexyl isothiocyanate], in data set [1], the “isothiocyanate concentration in cream, 4 months” value amounted to 0.341 Mg/gm; the “isothiocyanate concentration in cream, 8 months” value amounted to 0.614 Mg/gm; the “isothiocyanate concentration in cream, 12 months” value is recorded as 0.571 Mg/gm; the “isothiocyanate concentration in cream, Original” value was found to be 0.123 Mg/gm.
In the case of `Oc1ccc(/C=C/c2cc(O)cc(O)c2)cc1` [trans-resveratrol, 3,5,4′-trihydroxy-trans-stilbene], the inhibition of edema in the data set on ear edema (commercially-purified, at similar concentration to that of the topical formulation) was 35%.
In the case of `CC(=O)Oc1ccccc1C(=O)O` [aspirin], the “decrease in distant recurrence and breast cancer death” value with breast cancer is about 50%.
`C[S@+]([O-])CCCCN=C=S` [L-Sulforaphane]: in data set [1], the “isothiocyanate concentration in cream, 4 months” value amounted to 0.358 Mg/gm; the “isothiocyanate concentration in cream, 8 months” value worked out at 1.105 Mg/gm; the “isothiocyanate concentration in cream, 12 months” value came out at 1.841 Mg/gm; the “isothiocyanate concentration in cream, Original” value was determined as 0.606 Mg/gm.
Turning to `C[S+]([O-])CCCCN=C=S` (centres unmarked) [Sulforaphane], the “time to decline to a zero level” value in data set [2] was 30 days.
On to `C[S@@+]([O-])C=CCCN=C=S` [Sulforaphene, 4-isothiocyanato-(1R)-(methylsulphinyl)-1-(E)-butene], for which, in data set [1], the “isothiocyanate concentration in cream, 4 months” value turned out to be 1.729 Mg/gm; the “isothiocyanate concentration in cream, 8 months” value is recorded as 0.308 Mg/gm; the “isothiocyanate concentration in cream, 12 months” value was found to be 0.233 Mg/gm; the “isothiocyanate concentration in cream, Original” value was determined as 0.551 Mg/gm.
On to `COc1ccc2c(c1)c(CC(=O)O)c(C)n2C(=O)c1ccc(Cl)cc1` [indomethacin], for which the “inhibition / reduction of edema reported by studies of individual topical components” value with ear edema (research grade trans-resveratrol, indomethacin 0.5 mg/ear) is given as 45%.
Take `COc1cc(/C=C/C(=O)CC(=O)/C=C/c2ccc(O)c(OC)c2)ccc1O` [Curcumin]: the “Oral LD50” value in the data set on mice is listed as over 2 g/kg body weight.
As to “betamethasone-21-valerate [Topical Betamethasone]”, in data set [3], the “reduction / inhibition of oxazolone-induced ear edema” value was determined as 69%; the “Change in Ear Weight, Mean” value came to 23.7 mg; the “Left Ear weight” value was 22.10 mg and 23.20 mg and 24.56 mg and 20.44 mg and 21.26 mg and 22.60 mg (2×) and 25.74 mg; the “Right Ear weight” value is 48.00 mg and 45.52 mg and 48.66 mg and 47.03 mg and 41.34 mg and 45.70 mg and 49.51 mg and 46.30 mg. Moreover, in data set [3], the “ΔWt., change in mouse ear weight” value was 25.90 mg and 22.32 mg and 24.10 mg and 26.59 mg and 20.08 mg and 23.10 mg and 26.91 mg and 20.56 mg; the “% Inhibition of change in ear weight” value came out at 68%.
As for `Cc1ccc(-c2cc(C(F)(F)F)nn2-c2ccc(S(N)(=O)=O)cc2)cc1` [Oral Celecoxib, celecoxib], in data set [3], the “reduction / inhibition of oxazolone-induced ear edema” value is on record as 37%; the “Change in Ear Weight, Mean” value is given as 46.7 mg; the “Left Ear weight” value is 27.52 mg and 25.00 mg and 22.00 mg and 27.84 mg and 30.30 mg and 26.29 mg and 23.89 mg and 23.84 mg; the “Right Ear weight” value is 79.55 mg and 68.55 mg (2×) and 72.46 mg and 81.00 mg and 75.32 mg and 72.39 mg and 62.48 mg. For the same compound, in data set [3], the “ΔWt., change in mouse ear weight” value was 52.03 mg and 43.55 mg and 46.55 mg and 44.62 mg and 50.70 mg and 49.03 mg and 48.50 mg and 38.64 mg; the “% Inhibition of change in ear weight” value is 37%.

The values above are taken from patent publication US9610258B2, “Methods of stabilizing the extracellular matrix and compositions therefor” (priority 2011, dated 2017).
